The test system of the test is BALB/cJ mice, ADJ-PC-6 ip tumor, median survival T/C. The test can be described thus: NCI In Vivo Anticancer Drug Screen. Data for tumor model ADJ-PC-6 (intraperitoneal) in BALB/cJ mice. The note with it: endpoint: median survival time, higher = longer survival. On the procedure:
The antitumor activity of compounds was measured in mice bearing transplantable tumors. Survival or tumor size were measured and the results are expressed as the measurement made in the treated group (T) divided by the measurement made in the vehicle treated control group (C). The tumor model used in this assay is ADJ-PC-6 (intraperitoneal) in BALB/cJ mice

The mark [1] stands for this setting: dose: 20.0 mg/kg/injection, schedule: Q01DX009 (ip), vehicle: water.
Setting [2] is: dose: 40.0 mg/kg/injection, schedule: Q01DX009 (ip), vehicle: water.
[3] abbreviates: dose: 80.0 mg/kg/injection, schedule: Q01DX009 (ip), vehicle: water.
Where [4] appears, read: dose: 160.0 mg/kg/injection, schedule: Q01DX009 (ip), vehicle: water.
The mark [5] stands for this setting: dose: 0.25 mg/kg/injection, schedule: Q04DX003 (ip), vehicle: saline.
The mark [6] stands for this setting: dose: 0.5 mg/kg/injection, schedule: Q04DX003 (ip), vehicle: saline.
Setting [7] is: dose: 2.0 mg/kg/injection, schedule: Q04DX003 (ip), vehicle: saline.
Where [8] appears, read: dose: 1.5 mg/kg/injection, schedule: Q04DX003 (ip), vehicle: saline.
Setting [9] is: dose: 3.0 mg/kg/injection, schedule: Q04DX003 (ip), vehicle: saline.

“And” between values parts separate entries of the source, which are not always exact repeats. Equal entries are not always repeated. Toxic doses and inconclusive results are not listed. Starred links: 1 amine or outer side, 2 acyl side, 3 side chain; linkers in the order of their positions; H or OH if unused. Positions of bridges follow the written chain, without caps; N, C: chain ends. Non-standard residues stand in square brackets, D forms with d. Residues, ends and D or L forms follow the SMILES beside them. Chains are numbered I, II in the order given. Actinocin(9to1) = Cc1c2oc3c(C)ccc(C(=O)[*:1])c3nc-2c(C(=O)[*:2])c(N)c1=O; aThr = C[C@H](O)[C@H](N)C(=O)O; NMeV = CN[C@H](C(=O)O)C(C)C; Sar = CNCC(=O)O

Consider `CNc1nc(N(C)C)nc(N(C)C)n1`, for which the T/C was 101 % of control (dose: 19.4 mg/kg/injection, schedule: Q01DX014 (ip), vehicle: saline); 100 % of control and 105 % of control (dose: 19.4 mg/kg/injection, schedule: Q01DX014 (sc), vehicle: saline); 152 % of control (dose: 32.4 mg/kg/injection, schedule: Q01DX014 (sc), vehicle: saline); 150 % of control (dose: 54.0 mg/kg/injection, schedule: Q01DX014 (ip), vehicle: saline); 208 % of control (dose: 54.0 mg/kg/injection, schedule: Q01DX014 (sc), vehicle: saline); 181 % of control and 297 % of control (dose: 90.0 mg/kg/injection, schedule: Q01DX014 (ip), vehicle: saline). Moreover, the T/C reads like this: (dose: 90.0 mg/kg/injection, schedule: Q01DX014 (sc), vehicle: saline) 213 % of control and 243 % of control; (dose: 150.0 mg/kg/injection, schedule: Q01DX014 (ip), vehicle: saline) 45 % of control.

In the case of `CN(C)CNC(=O)c1ccccc1`, the T/C is 102 % of control under setting [1], 102 % of control under setting [2], 115 % of control under setting [3] and 107 % of control under setting [4].

Take `CC(=O)[C@]1(O)Cc2c(O)c3c(c(O)c2[C@@H](OC2CC(N)C(O)C(C)O2)C1)C(=O)c1c(O)cccc1C3=O` (stereo partly drawn): the T/C (dose: 0.13 mg/kg/injection, schedule: Q04DX003 (ip), vehicle: saline) was 164 % of control; the T/C under setting [5] was 168 % of control; the T/C under setting [6] is 178 % of control.

Consider `COc1cc(NCc2ccc3nc(N)nc(N)c3c2C)cc(OC)c1OC`, for which the T/C was 98 % of control (dose: 3.75 mg/kg/injection, schedule: Q01DX009 (ip), vehicle: Klucel (hydroxypropylcellulose) (HPC)); 110 % of control (dose: 7.5 mg/kg/injection, schedule: Q01DX009 (ip), vehicle: Klucel (hydroxypropylcellulose) (HPC)); 115 % of control (dose: 15.0 mg/kg/injection, schedule: Q01DX009 (ip), vehicle: Klucel (hydroxypropylcellulose) (HPC)).

On to `COC(=O)C[C@](O)(CCCC(C)(C)O)C(=O)O[C@@H]1C(OC)=C[C@]23CCCN2CCc2cc4c(cc2[C@H]13)OCO4`, for which the T/C under setting [5] was 104 % of control; the T/C under setting [6] was 93 % of control; the T/C (dose: 1.0 mg/kg/injection, schedule: Q04DX003 (ip), vehicle: saline) is 88 % of control; the T/C under setting [7] was 104 % of control; the T/C (dose: 4.0 mg/kg/injection, schedule: Q04DX003 (ip), vehicle: saline) is 102 % of control.

Turning to `COc1cccc2c1C(=O)c1c(O)c3c(c(O)c1C2=O)C[C@@](O)(C(C)=O)C[C@@H]3OC1CC(N)C(O)C(C)O1` (stereo partly drawn), the T/C was 101 % of control (dose: 0.38 mg/kg/injection, schedule: Q04DX003 (ip), vehicle: saline); 174 % of control under setting [8]; 177 % of control under setting [7]; 117 % of control under setting [9].

For `COc1c(O)c2c(c3cc(C(=O)N4CCc5c4c(O)c(OC)c4[nH]c(C(=O)N6CC7CC78C6=CC(=O)c6[nH]cc(C)c68)cc54)[nH]c13)CCN2C(N)=O` (stereo not drawn), the T/C was 95 % of control (dose: 25.0 micrograms/kg/injection, schedule: Q04DX003 (ip), vehicle: DMSO); 96 % of control (dose: 50.0 micrograms/kg/injection, schedule: Q04DX003 (ip), vehicle: DMSO); 103 % of control (dose: 100.0 micrograms/kg/injection, schedule: Q04DX003 (ip), vehicle: DMSO); 100 % of control (dose: 200.0 micrograms/kg/injection, schedule: Q04DX003 (ip), vehicle: DMSO).

With `CO[C@@]12[C@H](COC(N)=O)C3=C(C(=O)C(C)=C(N)C3=O)N1C[C@@H]1N[C@@H]12`, the T/C by setting is: under setting [8], 239 % of control; under setting [9], 335 % of control.

For `Cc1c2oc3c(C)ccc(C(=O)N[C@@H]4C(=O)N[C@H](C(C)C)C(=O)N5CCC[C@H]5C(=O)N(C)CC(=O)N(C)[C@@H](C(C)C)C(=O)O[C@H]4C)c3nc-2c(C(=O)N[C@@H]2C(=O)N[C@H](C(C)C)C(=O)N3CCC[C@H]3C(=O)N(C)CC(=O)N(C)[C@@H](C(C)C)C(=O)O[C@H]2C)c(N)c1=O` (I: [aThr][dV]P[Sar][NMeV] / II: [aThr][dV]P[Sar][NMeV]; ester I:1-I:C, II:1-II:C; linker I:N-II:N via Actinocin(9to1)), the T/C reads like this: (dose: 0.04 mg/kg/injection, schedule: Q04DX003 (ip), vehicle: saline + alcohol) 115 % of control; (dose: 0.08 mg/kg/injection, schedule: Q04DX003 (ip), vehicle: saline + alcohol) 115 % of control; (dose: 0.3 mg/kg/injection, schedule: Q04DX003 (ip), vehicle: saline + alcohol) 156 % of control; (dose: 0.6 mg/kg/injection, schedule: Q04DX003 (ip), vehicle: saline + alcohol) 189 % of control and 197 % of control; (dose: 37.5 micrograms/kg/injection, schedule: Q04DX003 (ip), vehicle: saline + alcohol) 94 % of control; (dose: 75.0 micrograms/kg/injection, schedule: Q04DX003 (ip), vehicle: saline + alcohol) 103 % of control. Besides, the T/C reads like this: (dose: 150.0 micrograms/kg/injection, schedule: Q04DX003 (ip), vehicle: saline + alcohol) 97 % of control; (dose: 300.0 micrograms/kg/injection, schedule: Q04DX003 (ip), vehicle: saline + alcohol) 90 % of control.

As to `O=C(O)c1ccc(C(=O)O)o1.[NH-]C1CCCCC1[NH-].[Pt+2]`, the T/C by setting is: (dose: 2.59 mg/kg/injection, schedule: Q04DX003 (ip), vehicle: water) 265 % of control; (dose: 4.3 mg/kg/injection, schedule: Q04DX003 (ip), vehicle: water) 254 % of control; (dose: 7.2 mg/kg/injection, schedule: Q04DX003 (ip), vehicle: water) 367 % of control; (dose: 12.0 mg/kg/injection, schedule: Q04DX003 (ip), vehicle: water) 234 % of control; (dose: 20.0 mg/kg/injection, schedule: Q04DX003 (ip), vehicle: water) 451 % of control.

Take `CCN(CC)CCOC(=O)c1ccc(NCN2C(=O)CCC2=O)cc1`: the T/C (dose: 10.0 mg/kg/injection, schedule: Q01DX009 (ip), vehicle: water) was 110 % of control; the T/C under setting [1] is 96 % of control; the T/C under setting [2] was 98 % of control; the T/C under setting [3] was 105 % of control; the T/C under setting [4] is 92 % of control.

On to `C(=N/NC1=NCCN1)/c1c2ccccc2c(/C=N\NC2=NCCN2)c2ccccc12`, for which the T/C runs as follows: (dose: 3.75 mg/kg/injection, schedule: Q04DX003 (ip), vehicle: saline) 253 % of control; (dose: 3.75 mg/kg/injection, schedule: Q04DX003 (ip), vehicle: water) 235 % of control; (dose: 7.5 mg/kg/injection, schedule: Q04DX003 (ip), vehicle: saline) 204 % of control; (dose: 7.5 mg/kg/injection, schedule: Q04DX003 (ip), vehicle: water) 235 % of control; (dose: 15.0 mg/kg/injection, schedule: Q04DX003 (ip), vehicle: saline) 253 % of control; (dose: 15.0 mg/kg/injection, schedule: Q04DX003 (ip), vehicle: water) 235 % of control. Besides, the T/C by setting is: (dose: 30.0 mg/kg/injection, schedule: Q04DX003 (ip), vehicle: saline) 225 % of control; (dose: 30.0 mg/kg/injection, schedule: Q04DX003 (ip), vehicle: water) 235 % of control; (dose: 60.0 mg/kg/injection, schedule: Q04DX003 (ip), vehicle: saline) 267 % of control.

For `CC(C)NC(=O)OCc1c(COC(=O)NC(C)C)c(-c2ccc(Cl)c(Cl)c2)n2c1CCC2`, the T/C runs as follows: (dose: 3.75 mg/kg/injection, schedule: Q01DX009 (ip), vehicle: saline with Tween-80) 235 % of control; (dose: 5.0 mg/kg/injection, schedule: Q01DX009 (ip), vehicle: saline with Tween-80) 222 % of control; (dose: 7.5 mg/kg/injection, schedule: Q01DX009 (ip), vehicle: saline with Tween-80) 235 % of control; (dose: 10.0 mg/kg/injection, schedule: Q01DX009 (ip), vehicle: saline with Tween-80) 222 % of control; (dose: 15.0 mg/kg/injection, schedule: Q01DX009 (ip), vehicle: saline with Tween-80) 235 % of control; (dose: 20.0 mg/kg/injection, schedule: Q01DX009 (ip), vehicle: saline with Tween-80) 222 % of control. Moreover, the T/C runs as follows: (dose: 30.0 mg/kg/injection, schedule: Q01DX009 (ip), vehicle: saline with Tween-80) 235 % of control; (dose: 60.0 mg/kg/injection, schedule: Q01DX009 (ip), vehicle: saline with Tween-80) 235 % of control.

The record behind these values is PubChem BioAssay AID184 (DTP/NCI, 2004).
